Results as given in ChEMBL document CHEMBL4270583, “Synthesis and biological evaluation of dihydroquinoline carboxamide derivatives as anti-tubercular agents” (Eur J Med Chem, 2018).
≈ marks a conversion by molar mass, not a printed value.

Experiments:
[1] = tested on: Mycobacterium tuberculosis; assay: Antitubercular activity against Mycobacterium tuberculosis H37Rv after 1 week by microplate alamar blue assay; type: functional; conditions: 168 h
[2] = Cytotoxicity against mouse RAW264.7 cells assessed as growth inhibition at 25 ug/ml after 48 hrs by MTT assay relative to control; type: cell-based; conditions: read-out: GI
[3] = Cytotoxicity against mouse RAW264.7 cells assessed as growth inhibition after 48 hrs by MTT assay; type: cell-based

Structure (SMILES)	MIC [1] [µg/mL]	inhibition at 48 h, 25 ug/ml [2] [%]	GI50 at 48 h [3] [µg/mL]
O=C(NCCN1CCCCC1)c1c(-c2ccccc2)c2cc(Cl)ccc2[nH]c1=O	25 (≈ 61 µM)		
O=C(Nc1ccc(F)cc1)c1c(-c2ccccc2)c2ccccc2[nH]c1=O	25 (≈ 69.8 µM)		
CS(=O)(=O)c1ccc(NC(=O)c2c(-c3ccccc3)c3ccccc3n(Cc3cccc(Cl)c3)c2=O)cc1	12.5 (≈ 23 µM)		
Cc1ccc(NC(=O)c2c(-c3ccccc3)c3cc(Cl)ccc3n(Cc3cc(F)cc(F)c3)c2=O)c(C)c1	12.5 (≈ 23.6 µM)		
COC(=O)C(Cc1c[nH]c2ccccc12)NC(=O)c1c(-c2ccccc2)c2cc(Cl)ccc2[nH]c1=O (stereo not given)	6.25 (≈ 12.5 µM)	21.5	104 (≈ 209 µM)
O=C(Nc1ccccc1F)c1c(-c2ccccc2)c2cc(Cl)ccc2n(Cc2ccc(F)cc2)c1=O	> 25		
Cc1cccc(Cn2c(=O)c(C(=O)Nc3ccc(Br)cc3)c(-c3ccccc3)c3cc(Cl)ccc32)c1	> 25		
O=C(Nc1ccc(N2CCOCC2)cc1)c1c(-c2ccccc2)c2cc(Cl)ccc2[nH]c1=O	6.25 (≈ 13.6 µM)	18.6	96.4 (≈ 210 µM)
Cc1cccc(Cn2c(=O)c(C(=O)Nc3ccc(C(F)(F)F)cc3)c(-c3ccccc3)c3cc(Cl)ccc32)c1	> 25		
O=C(NCCN1CCOCC1)c1c(-c2ccccc2)c2cc(Cl)ccc2[nH]c1=O	25 (≈ 60.7 µM)		
O=C(Nc1ccc(F)cc1)c1c(-c2ccccc2)c2ccccc2n(Cc2ccccc2)c1=O	> 25		
O=C(Nc1ccc(C(F)(F)F)cc1)c1c(-c2ccccc2)c2ccccc2n(Cc2ccccc2)c1=O	25 (≈ 50.2 µM)		
O=C(NCCc1ccc(O)cc1)c1c(-c2ccccc2)c2cc(Cl)ccc2[nH]c1=O	25 (≈ 59.7 µM)		
CSc1ccc(NC(=O)c2c(-c3ccccc3)c3cc(Cl)ccc3n(Cc3cccc(C)c3)c2=O)cc1	12.5 (≈ 23.8 µM)		
CSc1ccc(NC(=O)c2c(-c3ccccc3)c3ccccc3n(Cc3cccc(Cl)c3)c2=O)cc1	> 25		
O=C(NC12CC3CC(CC(C3)C1)C2)c1c(-c2ccccc2)c2ccccc2[nH]c1=O	3.12 (≈ 7.84 µM)	16.2	87.6 (≈ 220 µM)
O=C(Nc1ccc(CO)cc1)c1c(-c2ccccc2)c2cc(Cl)ccc2[nH]c1=O	> 25		

Structure (SMILES)	MIC [1] [µg/mL]	inhibition at 48 h, 25 ug/ml [2] [%]	GI50 at 48 h [3] [µg/mL]
Cc1cc(C)c(NC(=O)c2c(-c3ccccc3)c3cc(Cl)ccc3n(Cc3cccc(F)c3)c2=O)c(C)c1	0.78 (≈ 1.49 µM)	22.4	93.5 (≈ 178 µM)
Cc1cccc(Cn2c(=O)c(C(=O)Nc3ccc(OC(F)(F)F)cc3)c(-c3ccccc3)c3cc(Cl)ccc32)c1	> 25		
O=C(Nc1ccc2c(c1)OCCO2)c1c(-c2ccccc2)c2ccccc2[nH]c1=O	25 (≈ 62.7 µM)		
O=C(NCCc1c[nH]c2ccccc12)c1c(-c2ccccc2)c2ccccc2[nH]c1=O	12.5 (≈ 30.7 µM)		
Cc1cccc(Cn2c(=O)c(C(=O)Nc3ccc(F)cc3)c(-c3ccccc3)c3cc(Cl)ccc32)c1	> 25		
O=C(Nc1ccc(OC(F)(F)F)cc1)c1c(-c2ccccc2)c2ccccc2n(Cc2ccccc2)c1=O	> 25		
O=C(Nc1cccc(F)c1)c1c(-c2ccccc2)c2cc(Cl)ccc2n(Cc2ccc(F)cc2)c1=O	> 25		
O=C(Nc1ccc(Cl)cc1)c1c(-c2ccccc2)c2cc(Cl)ccc2n(Cc2cccc(F)c2)c1=O	0.39 (≈ 0.754 µM)	24.7	86.8 (≈ 168 µM)
O=C(NCCc1ccccc1)c1c(-c2ccccc2)c2cc(Cl)ccc2[nH]c1=O	25 (≈ 62.1 µM)		
COC(=O)C(Cc1ccc(O)cc1)NC(=O)c1c(-c2ccccc2)c2cc(Cl)ccc2[nH]c1=O (stereo not given)	12.5 (≈ 26.2 µM)		
O=C(Nc1ccc(Br)cc1)c1c(-c2ccccc2)c2ccccc2n(Cc2ccccc2)c1=O	6.25 (≈ 12.3 µM)	14.6	113 (≈ 222 µM)
O=C(NCCCn1ccnc1)c1c(-c2ccccc2)c2cc(Cl)ccc2[nH]c1=O	25 (≈ 61.4 µM)		
Cc1cccc(Cn2c(=O)c(C(=O)Nc3ccc(Cl)cc3)c(-c3ccccc3)c3cc(Cl)ccc32)c1	25 (≈ 48.7 µM)		
CC[C@@H](CO)NCCN[C@@H](CC)CO [ETHAMBUTOL]	1.56 (≈ 7.64 µM)		
NNC(=O)c1ccncc1 [ISONIAZID]	0.1 (≈ 0.729 µM)		
CO[C@H]1/C=C/O[C@@]2(C)Oc3c(C)c(O)c4c(O)c(c(/C=N/N5CCN(C)CC5)c(O)c4c3C2=O)NC(=O)/C(C)=C\C=C\[C@H](C)[C@H](O)[C@@H](C)[C@@H](O)[C@@H](C)[C@H](OC(C)=O)[C@@H]1C [RIFAMPIN]	0.2 (≈ 0.243 µM)		
